In ChEMBL document CHEMBL1156829 (Proc Natl Acad Sci U S A, 2008):

Key:
Plasmodium falciparum [1] = assay: NOVARTIS: Inhibition of Plasmodium falciparum W2 (drug-resistant) proliferation in erythrocyte-based infection assay; format: functional, organism-based; details: Plasmodium falciparum, W2; read-out: EC50
Plasmodium falciparum [2] = assay: NOVARTIS: Inhibition of Plasmodium falciparum 3D7 (drug-susceptible) proliferation in erythrocyte-based infection assay; format: functional, organism-based; details: Plasmodium falciparum, 3D7
[3] = NOVARTIS: Cytotoxicity against human hepatocellular carcinoma cell line (Huh7); format: toxicity, cell-based, Huh-7; details: Huh7 cells (hepatocellular carcinoma cell line)

| Structure (SMILES) | EC50 (Plasmodium falciparum [1]) | EC50 (Plasmodium falciparum [2]) | CC50 [3] |
| --- | --- | --- | --- |
| COc1ccccc1CNC(=O)CCC1N=C2c3ccccc3N=C(SCC(=O)Nc3ccc(F)cc3)N2C1=O (stereo not given) | 2510 nM | 5290 nM | > 100000 nM |
| O=C(CSc1nnc2c(n1)[nH]c1ccccc12)Nc1ccc([N+](=O)[O-])cc1 | > 12500 nM | 9110 nM | > 100000 nM |
| CCOC(=O)C1=C(N)N(c2cccc([N+](=O)[O-])c2)C2=C(C(=O)CC(C)(C)C2)C1c1ccc(Cl)cc1 (stereo not given) | 5550 nM | 6140 nM | > 100000 nM |
| COc1ccc(C)cc1-n1c(-c2ccc(Cl)cc2)cc2c1CC(C)(C)CC2=O | > 145 nM | 3.34 nM | > 10000 nM |
| COC(=O)C1=C(C)N/C(=C\c2cc(C)n(-c3cc(C)ccc3OC)c2C)C1=O | > 1250 nM | 400 nM | > 10000 nM |
| C=CC1(C)CC23CC(C(OC(=O)c4ccccc4)c4ccnc5ccccc45)N2CCC13 (stereo not given) | 938 nM | 176 nM | 29200 nM |
| O=C(c1cnn(-c2ccccc2)c1C(F)(F)F)N1CCN(c2ccnc3cc(Cl)ccc23)CC1 | 88.2 nM | 349 nM | > 100000 nM |
| COc1cccc(Nc2nc(NCCO)c3ccccc3n2)c1 | 312 nM | 115 nM | 21100 nM |
| CCOC(=O)c1ccc(OCC2c3cc(OC)c(OC)cc3CCN2C(=O)c2ccc([N+](=O)[O-])cc2)cc1 (stereo not given) | 1350 nM | > 12500 nM | > 100000 nM |
| CCc1cc(C(=O)OC)c(NC(=S)NC(C)c2ccncc2)s1 (stereo not given) | 5160 nM | 4550 nM | > 86900 nM |
| COc1ccccc1N1CCN(C2CCN(C3CCC(c4ccccc4)CC3)CC2)CC1 (stereo not given) | 670 nM | 293 nM | 20200 nM |
| COc1cccc2cc(C(=O)Nc3cccc(C(F)(F)F)c3)c(=O)oc12 | 64 nM | > 1250 nM | > 2370 nM |
| CC(C)N(CC(=O)Nc1cc(C(C)(C)C)nn1-c1ccc(Cl)cc1)C(=O)c1ccc(C(C)(C)C)cc1 | 4480 nM | 9960 nM | > 100000 nM |
| COc1ccc(C=Cc2cc[n+](C)cc2)cc1OC | 1010 nM | 1820 nM | > 100000 nM |
| COc1ccc(C=C2N=C(c3ccc(Cl)cc3)N(c3cc(Cl)ccc3C)C2=O)cc1OC | 1320 nM | 3480 nM | > 100000 nM |
| N#Cc1ccc(N2CCN(C(=O)c3ccc(F)cc3Cl)CC2)cc1 | 67.5 nM | 155 nM | > 10000 nM |
| O=C(Nc1ccc(-n2cccn2)cc1)C1CCN(C/C=C/c2ccccc2)CC1 | 1540 nM | 464 nM | > 10000 nM |
| NC(Cc1ccccc1)C(=O)N1CCn2c(nc(-c3ccccc3)c2Nc2ccc3c(c2)OCO3)C1 (stereo not given) | 29.1 nM | 30.4 nM | 42800 nM |
| CCN(CC)CCNc1ccnc2ccc([N+](=O)[O-])cc12 | 115 nM | 89.8 nM | > 100000 nM |
| CCN(CC)c1nc(NN=Cc2cccc([N+](=O)[O-])c2OC)nc(Nc2ccccc2)n1 | 294 nM | 244 nM | > 100000 nM |
| CC1(C)CC(=O)C(=CNc2nc3c(s2)CCc2c-3cnn2-c2ccccc2)C(=O)C1 | > 1250 nM | > 942 nM | > 10000 nM |
| COc1ccc2nc(C)cc(Nc3ccc(Br)cc3)c2c1 | 369 nM | 201 nM | 19700 nM |

| Structure (SMILES) | EC50 (Plasmodium falciparum [1]) | EC50 (Plasmodium falciparum [2]) | CC50 [3] |
| --- | --- | --- | --- |
| COc1cc(NC(C)CCCN(Cc2ccc(N(C)C)cc2)C(=O)c2ccc(F)cc2)c2ncccc2c1 (stereo not given) | 501 nM | > 630 nM | > 10000 nM |
| C=CCC(=O)NC1CCN(CC(O)CN(Cc2ccccc2)S(=O)(=O)c2ccccc2)C1 (stereo not given) | 1330 nM | 257 nM | > 100000 nM |
| CC(c1nc2ccccc2c(=O)n1-c1ccc(Br)cc1)N1CCN(S(=O)(=O)c2ccc3ccccc3c2)C(C)C1 (stereo not given) | 434 nM | > 1250 nM | > 10000 nM |
| Cc1ccc(-n2c(=S)sc3c(=O)n(-c4ccccc4)c(SCC(=O)c4ccccc4)nc32)cc1C | 1790 nM | > 1250 nM | > 10000 nM |
| CC(Cc1ccccc1)NCc1ccccc1O (stereo not given) | < 4.93 nM | 525 nM | > 10000 nM |
| COc1ccccc1C(=O)NNC(=O)c1ccccn1 | 1380 nM | 1710 nM | 8700 nM |
| CC(=O)Nc1ccc(S(=O)(=O)N(C)CC(=O)NN=Cc2ccncc2)cc1 | 1360 nM | > 5760 nM | > 100000 nM |
| CCC(c1nc2ccccc2c(=O)n1-c1ccc(F)cc1)N(CCc1ccccc1)C(=O)CCc1ccccc1 (stereo not given) | 1540 nM | 1520 nM | > 10000 nM |
| COc1ccccc1NC1=C(N2CCCCC2)C(=O)c2ccccc2C1=O | 40.1 nM | 28 nM | 7870 nM |
| O=C(O)C1Cc2c([nH]c3ccccc23)C(c2ccc(Cl)cc2Cl)N1 (stereo not given) | 688 nM | 1020 nM | > 100000 nM |
| COc1ccc(N(C)C(=O)CNC(=O)c2nn(-c3ccc(OC)cc3OC)c(=O)c3ccccc23)cc1 | > 685 nM | > 1250 nM | > 10000 nM |
| CCSc1nc2sc3c(c2c(=O)n1CC)CCN(C)C3 | 923 nM | 1410 nM | > 100000 nM |
| O=C(C1CC1)N1CCc2cc(Br)cc(S(=O)(=O)N3CCCCCC3)c21 | 834 nM | 1430 nM | > 100000 nM |
| COc1ccc(/C=C2\SC(=Nc3ccccc3)NC2=O)cc1 | 233 nM | 342 nM | > 10000 nM |
| O=C(OCCOc1ccc([N+](=O)[O-])cc1)c1ccc(Br)o1 | > 1250 nM | 782 nM | > 10000 nM |
| COc1cccc(-c2ccc(O)c(CN3CCCCC3)c2)n1 | 54.7 nM | 469 nM | > 95800 nM |
| CCN1c2ccccc2N(C)C1(C)c1ccccc1 (stereo not given) | 49.3 nM | 46.5 nM | 28800 nM |
| COc1ccc2c(c1OC)C(=O)N(c1ncc(C)s1)C2 | > 1080 nM | > 1250 nM | > 10000 nM |
| CCOC(=O)C1=C(C)N(c2ccc(OCC)cc2)C(=O)C1=Cc1ccc(C(C)C)cc1 | > 12500 nM | 3500 nM | > 100000 nM |
| COc1ccc(C2=C(c3ccc(OC)cc3)C3(c4ccccc4)C(=O)C2(c2ccccc2)C2C(=O)N(c4ccc(F)cc4)C(=O)C23)cc1 (stereo not given) | 3350 nM | 2240 nM | > 100000 nM |
| O=C(N/C(=C/C=C/c1ccccc1)C(=O)N1CCCCC1)c1ccc([N+](=O)[O-])cc1 | > 889 nM | > 719 nM | > 10000 nM |
| NC(=S)NN=C1c2ccccc2-c2nc3nonc3nc21 | 582 nM | 1130 nM | > 10000 nM |

| Structure (SMILES) | EC50 (Plasmodium falciparum [1]) | EC50 (Plasmodium falciparum [2]) | CC50 [3] |
| --- | --- | --- | --- |
| O=C(CS(=O)(=O)c1ccc(C(F)(F)F)cn1)NNS(=O)(=O)c1ccc(Cl)cc1 | 26.7 nM | > 1340 nM | > 10000 nM |
| O=C(NC1CC1)c1ccc(N2C(=O)C3C4c5ccccc5C(c5ccccc54)C3C2=O)cc1 (stereo not given) | 1900 nM | > 872 nM | > 10000 nM |
| COc1ccc(Br)cc1CNC(=O)CCCN1C(=O)COc2ccc(C)cc21 | 628 nM | 1880 nM | > 100000 nM |
| C[n+]1c(C=Cc2ccc(Cl)c(Cl)c2)ccc2ccccc21 | 1760 nM | 524 nM | 5370 nM |
| COc1ccc(CCNc2nc(NCCCN(C)C)ncc2C(=O)NCc2ccccc2)cc1OC | > 1190 nM | 605 nM | > 10000 nM |
| CC1CN(C)C(C)CC1=NOC(=O)c1ccc(Cl)c(Cl)c1 (stereo not given) | > 848 nM | > 1250 nM | > 10000 nM |
| O=C(C1CCC1)N1CCOc2c(cc(-c3csc4ccccc34)cc2OCCc2ccccn2)C1 | 515 nM | 754 nM | > 99600 nM |
| CCCN1CCC(N2C[C@@H](NCc3cc(C)ccc3C)C[C@H]2C(=O)NCCc2ccc3c(c2)OCO3)CC1 | 661 nM | 478 nM | 4200 nM |
| COc1cccc(CC2(CO)CCCN(Cc3sc(N4CCCC4)nc3Cl)C2)c1 (stereo not given) | > 6210 nM | > 12500 nM | > 100000 nM |
| CCN1/C(=C/c2sc3cc(OC)c(OC)cc3[n+]2CC)C=Cc2ccccc21 | 104 nM | 136 nM | > 10000 nM |
| COc1cccc(-c2ccc(O)c(CN(C)CCc3ccc(OC)c(OC)c3)c2)n1 | 52.3 nM | 337 nM | 57900 nM |
| C=C[C@H]1CN2CC[C@H]1C[C@@H]2[C@@H](O)c1ccnc2ccccc12 [CINCHONINE] | 110 nM | 95.3 nM | > 6250 nM |
| CCc1cc2c3c(c1)C1(C(=O)N3C(C)(C)CC2C)C(C#N)=C(N)Oc2cc(C)oc(=O)c21 (stereo not given) | 228 nM | 1470 nM | > 100000 nM |
| CCOC(=O)c1sc(NC(=O)CSc2nnc(CNC(=O)COc3ccc(Cl)cc3)n2C)c(C(=O)OCC)c1C | > 601 nM | 1080 nM | > 10000 nM |
| BrC(Br)(Br)c1ncc(-c2ccccc2)cn1 | 143 nM | 43.3 nM | > 10000 nM |
| CCCNCC(O)COc1ccccc1C(=O)CCc1ccccc1 (stereo not given) [PROPAFENONE] | 116 nM | 252 nM | 28900 nM |
| O=C(COC(=O)c1ccccc1O)c1ccc(Br)cc1 | 1820 nM | 1540 nM | > 10000 nM |
| Cc1ccc(Cl)cc1-n1c(SCc2ccccc2)nnc1C(Cc1ccccc1)NC(=O)C12CC3CC(CC(C3)C1)C2 (stereo not given) | > 954 nM | > 1250 nM | 1130 nM |
| CO[C@H]1[C@@H](C)[C@@H]([C@H](C)C2O[C@@]3(CC[C@@](C)([C@H]4CC[C@@](C)([C@@H]5O[C@@H]([C@H]6O[C@](C)(O)[C@H](C)C[C@@H]6C)C[C@@H]5C)O4)O3)C[C@H](O)[C@@H]2C)O[C@@](O)([C@H](C)C(=O)O)[C@H]1C (stereo not given in full) | 938 nM | 1140 nM | > 10000 nM |
| CCOC(=O)N1CCN(S(=O)(=O)c2ccc(C(=O)Nc3sc4c(c3C(N)=O)CCN(CC)C4)cc2)CC1 | 1390 nM | > 12500 nM | 20400 nM |
| CCCCc1ccc(C(=O)Oc2ccccc2-c2nc3cc(C)ccn3c2NC(C)(C)CC(C)(C)C)cc1 | 107 nM | 616 nM | > 10000 nM |
